From patent publication US20240336611A1 (Insilico Medicine IP Limited, priority 2021, published 2024)

Target: T1, TNIK kinase [amino acid sequence (1-367), Invitrogen] (Homo sapiens, UniProt Q9UKE5)
T1 construct: purchased Invitrogen
Test: TNIK kinase inhibition assay (Z-lyte FRET-peptide)
Format: biochemical
Conditions: 0.625 nM TNIK kinase, 2 μM Ser/Thr 7 peptide, 64 μM ATP, one hour at room temperature
Method: Z-lyte assay kit was purchased from Invitrogen. A site-specific protease recognizes and cleaves non-phosphorylated FRET-peptides. Phosphorylation of FRET-peptides suppresses cleavage by protease and will maintain FRET from donor to acceptor.
5 μl of Development Reagent A solution was then added to cleave non-phosphorylated peptide with a dilution 1:65000 in Development Buffer B. The assay plate was incubated at room temperature for another one hour and then read in the Envision plate reader (PerkinElmer).

T1 sequence (Q9UKE5 1-367): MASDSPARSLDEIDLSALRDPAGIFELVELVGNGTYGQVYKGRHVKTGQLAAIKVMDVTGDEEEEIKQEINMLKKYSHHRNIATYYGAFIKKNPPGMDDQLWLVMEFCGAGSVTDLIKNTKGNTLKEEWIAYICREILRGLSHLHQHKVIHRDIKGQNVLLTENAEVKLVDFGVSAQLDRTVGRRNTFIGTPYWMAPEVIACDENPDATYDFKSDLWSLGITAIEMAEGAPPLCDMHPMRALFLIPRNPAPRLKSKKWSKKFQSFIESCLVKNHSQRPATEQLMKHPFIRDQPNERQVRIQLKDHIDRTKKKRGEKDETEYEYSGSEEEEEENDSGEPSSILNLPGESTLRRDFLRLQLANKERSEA

| SMILES | IC50 [nM] |
| --- | --- |
| [2H]C([2H])([2H])N1CC(c2ccc(NC(=O)c3coc(-c4c(-c5ccc(F)cc5)ncn4C([2H])(C)C)n3)nc2)C1 [Compound 111] | 12 to 150 |
| [2H]C(C)(C)n1cnc(-c2ccc(F)cc2)c1-c1nc(C(=O)Nc2ccc(N3CCN(CC)CC3)cc2)c[nH]1 [Compound 135, 2-[3-(1-deuterio-1-methyl-ethyl)-5-(4-fluorophenyl)imidazol-4-yl]-N-[4-(4-ethylpiperazin-1-yl)phenyl]-1H-imidazole-4-carboxamide] | 12 to 150 |
| O=C(Nc1ccc(N2CCC2)cn1)c1coc(-c2c(-c3ccc(F)cc3)ncn2C2CC(F)(F)C2)n1 [Compound 69, N-(5-(azetidin-1-yl)pyridin-2-yl)-2-(1-(3,3-difluorocyclobutyl)-4-(4-fluorophenyl)-1H-imidazol-5-yl)oxazole-4-carboxamide] | > 150 |
| CC(C)c1onc(-c2ccc(F)cc2)c1-c1nc(C(=O)Nc2ccc(N3CC4CC(C3)N4C)cc2F)co1 [Compound 105, N-(2-fluoro-4-(6-methyl-3,6-diazabicyclo[3.1.1]heptan-3-yl)phenyl)-2-(3-(4-fluorophenyl)-5-isopropylisoxazol-4-yl)oxazole-4-carboxamide] | 12 to 150 |
| O=C(Nc1ccc(N2CCOCC2)cn1)c1coc(-c2c(-c3ccc(F)cc3)ncn2C2COC2)n1 [Compound 71, 2-(4-(4-fluorophenyl)-1-(oxetan-3-yl)-1H-imidazol-5-yl)-N-(5-morpholinopyridin-2-yl)oxazole-4-carboxamide] | > 150 |
| CC(C)n1cnc(-c2ccc(F)cc2)c1-c1coc(C(=O)Nc2ccc(N3CC4CCC(C3)N4C)cn2)n1 [Compound 39, 4-(4-(4-fluorophenyl)-1-isopropyl-1H-imidazol-5-yl)-N-(5-(8-methyl-3,8-diazabicyclo[3.2.1]octan-3-yl)pyridin-2-yl)oxazole-2-carboxamide] | 12 to 150 |
| O=C(Nc1ccc(N2CCC2)cn1)c1coc(-c2c(-c3ccc(F)cc3)ncn2C2COC2)n1 [Compound 79, N-(5-(azetidin-1-yl)pyridin-2-yl)-2-(4-(4-fluorophenyl)-1-(oxetan-3-yl)-1H-imidazol-5-yl)oxazole-4-carboxamide] | 12 to 150 |
| CC(C)c1onc(-c2ccc(F)cc2)c1-c1nc(C(=O)Nc2ccc(C3CN(C)C3)cc2F)co1 [Compound 106, N-(2-fluoro-4-(1-methylazetidin-3-yl)phenyl)-2-(3-(4-fluorophenyl)-5-isopropylisoxazol-4-yl)oxazole-4-carboxamide] | 12 to 150 |
| O=C(Nc1ccc(N2CCCC2)cn1)c1c[nH]c(-c2c(-c3ccc(F)cc3)ncn2C2CC(F)(F)C2)n1 [Compound 76, 3′-(3,3-difluorocyclobutyl)-5′-(4-fluorophenyl)-N-(5-(pyrrolidin-1-yl)pyridin-2-yl)-1H,3′H-[2,4′-biimidazole]-4-carboxamide] | 12 to 150 |
| CC(C)n1cnc(-c2ccc(F)cc2)c1-c1cnc(C(=O)Nc2ccc(N3CCN(C)CC3)cc2)s1 [Compound 1, 5-(4-(4-fluorophenyl)-1-isopropyl-1H-imidazol-5-yl)-N-(4-(4-methylpiperazin-1-yl)phenyl)thiazole-2-carboxamide] | > 150 |

Results, then the compound that gave them:

| IC50 [nM] | SMILES |
| --- | --- |
| 1 to 12 | CC(C)n1cnc(-c2ccc(F)cc2)c1-c1nc(C(=O)Nc2ccc(C3CN(C)C3)cc2F)co1 [Compound 101, N-(2-fluoro-4-(1-methylazetidin-3-yl)phenyl)-2-(4-(4-fluorophenyl)-1-isopropyl-1H-imidazol-5-yl)oxazole-4-carboxamide] |
| 1 to 12 | CN1C2CC1CN(c1ccc(NC(=O)c3c[nH]c(-c4c(-c5ccc(F)cc5)ncn4C4CCC4)n3)nc1)C2 [Compound 50, 3′-cyclobutyl-5′-(4-fluorophenyl)-N-(5-(6-methyl-3,6-diazabicyclo[3.1.1]heptan-3-yl)pyridin-2-yl)-1H,3′H-[2,4′-biimidazole]-4-carboxamide] |
| 12 to 150 | CC(C)c1noc(-c2ccc(F)cc2)c1-c1nc(C(=O)Nc2ccc(C3CN(C)C3)cn2)cs1 [Compound 89, 2-(5-(4-fluorophenyl)-3-isopropylisoxazol-4-yl)-N-(5-(1-methylazetidin-3-yl)pyridin-2-yl)thiazole-4-carboxamide] |
| 1 to 12 | CN1C2CCC1CN(c1ccc(NC(=O)c3c[nH]c(-c4c(-c5ccc(F)cc5)ncn4C4CC4)n3)nc1)C2 [Compound 47, 3′-cyclopropyl-5′-(4-fluorophenyl)-N-(5-(8-methyl-3,8-diazabicyclo[3.2.1]octan-3-yl)pyridin-2-yl)-1H,3′H-[2,4′-biimidazole]-4-carboxamide] |
| 1 to 12 | CC(C)n1cnc(-c2ccc(F)cc2)c1-c1nc(C(=O)Nc2ccc(N3CCN(C)CC3)c(F)c2F)c[nH]1 [Compound 17, N-(2,3-difluoro-4-(4-methylpiperazin-1-yl)phenyl)-5′-(4-fluorophenyl)-3′-isopropyl-1H,3′H-[2,4′-biimidazole]-4-carboxamide] |
| 1 to 12 | CC(C)c1noc(-c2ccc(F)cc2)c1-c1nc(C(=O)Nc2ccc(C3CN(C)C3)cc2F)cs1 [Compound 87, N-(2-fluoro-4-(1-methylazetidin-3-yl)phenyl)-2-(5-(4-fluorophenyl)-3-isopropylisoxazol-4-yl)thiazole-4-carboxamide] |
| 1 to 12 | CC(C)n1cnc(-c2ccc(F)cc2)c1-c1csc(C(=O)Nc2ccc(N3C[C@H]4CC[C@@H](C3)N4C)cn2)n1 [Compound 38, 4-(4-(4-fluorophenyl)-1-isopropyl-1H-imidazol-5-yl)-N-(5-((1R,5S)-8-methyl-3,8-diazabicyclo[3.2.1]octan-3-yl)pyridin-2-yl)thiazole-2-carboxamide] |
| 1 to 12 | O=C(Nc1ccc(N2CCC2)cn1)c1csc(-c2c(-c3ccc(F)cc3)ncn2C2COC2)n1 [Compound 75, N-(5-(azetidin-1-yl)pyridin-2-yl)-2-(4-(4-fluorophenyl)-1-(oxetan-3-yl)-1H-imidazol-5-yl)thiazole-4-carboxamide] |
| 1 to 12 | [2H]C([2H])([2H])N1CC(c2ccc(NC(=O)c3c[nH]c(-c4c(-c5ccc(F)cc5)ncn4C4CCC4)n3)c(F)c2)C1 [Compound 120, 2-[3-cyclobutyl-5-(4-fluorophenyl)imidazol-4-yl]-N-[2-fluoro-4-[1-(trideuteriomethyl)azetidin-3-yl]phenyl]-1H-imidazole-4-carboxamide] |
| 1 to 12 | CC(C)n1cnc(-c2ccc(F)cc2)c1-c1nc(C(=O)Nc2ccc(N3C[C@H]4CC[C@@H](C3)N4C)nc2)c[nH]1 [Compound 25, 5′-(4-fluorophenyl)-3′-isopropyl-N-(6-((1R,5S)-8-methyl-3,8-diazabicyclo[3.2.1]octan-3-yl)pyridin-3-yl)-1H,3′H-[2,4′-biimidazole]-4-carboxamide] |
| 1 to 12 | CC(C)n1cnc(-c2ccc(F)cc2)c1-c1ncc(C(=O)Nc2ccc(N3CC4(CN(C)C4)C3)cc2)[nH]1 [Compound 20, 5′-(4-fluorophenyl)-3′-isopropyl-N-(4-(6-methyl-2,6-diazaspiro[3.3]heptan-2-yl)phenyl)-1H,3′H-[2,4′-biimidazole]-5-carboxamide] |
| 1 to 12 | CN1CCN(c2ccc(NC(=O)c3csc(-c4c(-c5ccc(F)cc5)nc5n4CCOC5)n3)nc2)CC1 [Compound 29, 2-(2-(4-fluorophenyl)-6,8-dihydro-5H-imidazo[2,1-c][1,4]oxazin-3-yl)-N-(5-(4-methylpiperazin-1-yl)pyridin-2-yl)thiazole-4-carboxamide] |
